Key:
[1] = target: T1, CXCR7 receptor (Homo sapiens (Human), UniProt P25106); test: Buffer Binding Analysis: displacement of 125I-labeled SDF-1 from CXCR7; conditions: 125I SDF-1 displacement, buffer binding medium, MCF-7 and/or MDA-MB-435S CXCR7 transfected cells, 3 hr at 4° C.; read-out: Avg Bind IC50
Procedure: (§1) The compounds were combined with cells expressing the CXCR7 receptor (e.g., MCF cells or cells transfected to express CXCR7) in the presence of the 125 I-labeled SDF-1 chemokine as detailed in Determination of IC50 values. Reagents and Cells (see below). The ability of the compounds to displace the labeled chemokine from the CXCR7 receptor sites at multiple concentrations was then determined with the screening process.
Compounds that were deemed effective modulators were able to displace at least 50% of the SDF-1 from the CXCR7 receptor at concentrations at or below 15 micromolar (μM) but >2500 nM (+); and more preferably at concentrations from >500 nM to ≤2500 nM (++). At present, especially preferred compounds can displace at least 50% of the SDF-1 from the CXCR7 receptor at concentrations at or below 500 nM (+++). Exemplary compounds that met these criteria are reproduced in Table 1 and the Examples above. In Table 1, Avg Bind IC50 refers to the Buffer Binding Analysis described below, while Avg Ser IC50 refers to the Serum Binding Analysis described below. All compounds were prepared as described in the Examples above, or by related methods substituting readily available starting materials.
(§2) ^125I-labeled SDF-1 was purchased from Perkin-Elmer Life Sciences, Inc. (Boston, Mass.). The MCF-7 (adenocarcinoma; mammary gland) cell line was obtained from the American Type Culture Collection (ATCC, Manassas, Va.) or and was cultured in DMEM (Mediatech, Herndon, Va.) supplemented with 10% fetal bovine serum (FBS) (HyClone Logan, Utah) and bovine insulin (0.01 mg/mL) (Sigma. St. Louis, Mo.) at 37° C. in a humidified incubator at a 5% CO2/air mixture. CXCR7 transfected MDA-MB-435S were produced as described below. MDA-MB-435S human breast cancer line, was purchased from ATCC, and cultured in DMEM/10% FBS medium. The complete coding sequence of the gene encoding CXCR7 (a.k.a. CCXCKR2, hRDC1), was isolated from MCF-7 cells using μMACs mRNA isolation kit (Miltenyi Biotec, Auburn, Calif.). DNA contamination was removed by DNase digestion via RNeasy columns (Qiagen, Inc., Valencia, Calif.) and cDNA was generated using GeneAmp RNA PCR Core Kit (Applied Biosystems, Foster City. Calif.). PCR of cDNA samples was performed using Taq PCR Master Mix kit (Qiagen. Inc.) and hRDC1 primers harboring 5′ and 3′ Not I sites (hRDC1F 5′ […]-3, hRDC1R 5′-[…]-3′) Not I digested PCR product was ligated into Not I digested pcDNA3.1(+)(Invitrogen, Carlsbad, Calif.) and screened for orientation and sequence confirmed. Plasmid DNA was then isolated from overnight bacterial cultures by Maxiprep (Qiagen, Inc.). Plasmid DNA (10 μg) was added to MDA-MB-435s cells and cells were electroporated (0.22 kV, 960 uF) via Gene Pulser (Biorad laboratories, Hercules, Calif.). 48 hr post-electroporation, cells were transferred to selection medium (600 ug/ml G418).
(§3) Target compounds can be tested to determine their ability to bind with CXCR7 sites on MCF-7 and/or MDA-MB-435S CXCR7 transfected cells. Efficiency-maxim/zed radioligand binding using filtration protocols as described in Dairaghi D J, et al., HHV8-encoded vMIP-I selectively engages chemokine receptor CCR5. Agonist and antagonist profiles of viral chemokines., J. Biol. Chem. 1999 Jul. 30; 274(31): 21569-74 and Gosling J. et al., Cutting edge: identification of a novel chemokine receptor that binds dendritic cell-and T cell-active chemokines including ELC. SLC, and TECK., J. Immunol. 2000 Mar. 15; 164(6):2851-6 was used.
In these assays, MCF-7 and/or MDA-MB-435S cells are interrogated with the target compounds and the ability of these compounds to displace ^125I radiolabeled SDF-1 assessed using the protocol described in Dairaghi and Gosling. […]

[2] = target: T1, CXCR7 receptor; test: Serum Binding Analysis: displacement of 125I-labeled SDF-1 from CXCR7 in 100% human serum; conditions: 125I SDF-1 displacement in 100% human serum, MCF-7 and/or MDA-MB-435S CXCR7 transfected cells, 3 hrs at 4° C.; read-out: Avg Ser IC50
Procedure: as §1
In Table 1, Avg Bind IC50 refers to the Buffer Binding Analysis described below, while Avg Ser IC50 refers to the Serum Binding Analysis described below. All compounds were prepared as described in the Examples above, or by related methods substituting readily available starting materials.
as §2
as §3, with “In order to more properly assess the binding efficacy of the compounds, radioligand binding assays were carried out in the presence of 100% human serum to more accurately reflect the in vivo environment. […] Target” for “Target”, “compounds were” for “compounds can be”, “Gosling J,” for “Gosling J.”, “dendritic cell- and” for “dendritic cell-and”, “including ELC,” for “including ELC.”, “and TECK,” for “and TECK.,”
In these assays, MCF-7 and/or MDA-MB-435S cells were interrogated with the target compounds and the ability of these compounds to displace 125 I radiolabeled SDF-1 was assessed using the protocol described in Dairaghi and Gosling. The target compounds were added to the plate to the indicated concentration followed by addition of cells and radiolabeled chemokine (125I SDF-1), both in the following medium (human AB serum with 10 mM HEPES added to stabilize at pH 7.4). All assays were then incubated for 3 hrs at 4° C. with gentle agitation.

[3] = system: C6 cells; test: Rat C6 model of glioblastoma; format: in vivo; conditions: C6 cells implanted into brains of Sprague-Dawley rats, tumors irradiated with 5-20 Gy after 7 days, then compound vs vehicle control
Procedure: Many tumor models in animals are known in the art, and may be employed to evaluate a compound of instance. For instance, in a rat C6 model of glioblastoma, 1×10^6 C6 cells were implanted by stereotactic injection into the into the brains of Sprague-Dawley rats. After 7 days tumors were irradiated with between 5-20 Gy of radiation. Following irradiation rats were treated (eg via subcutaneous, intraperitoneal, oral, parenteral or other route) with compound or vehicle control and tumors are allowed to progress. Animals were followed until death or loss of >20% weight, or removed for tumor induced neurodeficits eg seizures and immobility in according with appropriate regulations and standards.

T1 sequence (P25106 whole entry): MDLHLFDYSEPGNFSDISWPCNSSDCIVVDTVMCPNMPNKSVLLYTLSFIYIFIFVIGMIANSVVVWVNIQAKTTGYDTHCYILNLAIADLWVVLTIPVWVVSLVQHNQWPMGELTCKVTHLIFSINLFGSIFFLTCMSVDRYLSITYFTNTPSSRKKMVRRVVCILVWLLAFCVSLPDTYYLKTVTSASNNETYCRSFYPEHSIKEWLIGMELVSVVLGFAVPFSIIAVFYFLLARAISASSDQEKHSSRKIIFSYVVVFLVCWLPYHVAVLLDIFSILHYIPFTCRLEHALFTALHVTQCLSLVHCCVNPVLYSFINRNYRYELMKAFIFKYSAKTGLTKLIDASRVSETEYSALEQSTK

Row | SMILES | IC50 [1] [nM] | IC50 [2] [nM] | antitumor activity (delay in tumor growth, Kaplan Meier analysis of survival) [3]
1 | O=C(N[C@H]1CCN(c2nccn3ccnc23)C1)c1ncn(-c2ccc(F)cc2)n1 [Compound 1.090] | ≤ 500 | ≤ 500 | profound antitumor activity
2 | O=C(N[C@H]1CCN(c2nccn3cccc23)C1)c1ccn(-c2ccc(Cl)c(F)c2)n1 [Compound 1.114] | ≤ 500 | ≤ 500 | 
3 | N#CCc1ccccc1-n1ccc(C(=O)N[C@H]2CCN(c3nccn4cccc34)C2)n1 [Compound 1.115] | ≤ 500 | ≤ 500 | 
4 | Cc1ccn2ccnc(N3CC[C@H](NC(=O)c4coc(-c5ccc(F)cc5)n4)C3)c12 [Compound 1.116] | ≤ 500 | 500 to 2500 | 
5 | Cc1ccn2ccnc(N3CC[C@H](NC(=O)c4ncn(-c5ccccc5)n4)C3)c12 [Compound 1.117] | ≤ 500 | ≤ 500 | 
6 | Cc1ccccc1-n1cnc(C(=O)N[C@H]2CCN(c3nccn4cccc34)C2)n1 [Compound 1.118] | ≤ 500 | ≤ 500 | 
7 | O=C(N[C@H]1CCN(c2nccn3cccc23)C1)c1ncn(-c2ccc(Cl)cc2)n1 [Compound 1.119] | ≤ 500 | 500 to 2500 | 
8 | O=C(N[C@H]1CCN(c2nccn3cccc23)C1)c1noc(-c2ccccc2)n1 [Compound 1.120] | ≤ 500 | ≤ 500 | 
9 | O=C(N[C@H]1CCN(c2nccn3cnnc23)C1)c1coc(-c2ccc(F)cc2)n1 [Compound 1.122] | ≤ 500 | ≤ 500 | 
10 | Cc1ccccc1-n1ccc(C(=O)N[C@H]2CCN(c3nccn4cccc34)C2)n1 [Compound 1.123] | ≤ 500 | ≤ 500 | 
11 | O=C(N[C@H]1CCN(c2nccn3cccc23)C1)c1csc(-c2ccccc2)n1 [Compound 1.124] | ≤ 500 | ≤ 500 | 
12 | O=C(N[C@H]1CCN(c2nccn3cccc23)C1)c1coc(-c2ccccc2)n1 [Compound 1.125] | ≤ 500 | ≤ 500 | 
13 | O=C(N[C@H]1CCN(c2nccn3cccc23)C1)c1ncn(-c2ccccc2)n1 [Compound 1.126] | ≤ 500 | ≤ 500 | 
14 | O=C(N[C@H]1CCN(c2nccn3cnnc23)C1)c1ncn(-c2ccccc2)n1 [Compound 1.127] | ≤ 500 | ≤ 500 | 
15 | O=C(N[C@H]1CCN(c2nccn3cccc23)C1)c1ccn(-c2ccc(Cl)cc2)n1 [Compound 1.129] | ≤ 500 | ≤ 500 | 

Further lines, with some results ahead:

Row | IC50 [1] [nM] | IC50 [2] [nM] | SMILES | antitumor activity (delay in tumor growth, Kaplan Meier analysis of survival) [3]
16 | ≤ 500 | 500 to 2500 | Cc1ccn2ccnc(N3CC[C@H](NC(=O)c4coc(-c5ccccc5)n4)C3)c12 [Compound 1.107] | 
17 | ≤ 500 | 500 to 2500 | Cc1ccn2ccnc(N3CC[C@H](NC(=O)c4csc(-c5ccc(F)cc5)n4)C3)c12 [Compound 1.108] | 
18 | ≤ 500 | 500 to 2500 | Cc1ccccc1-n1ccc(C(=O)N[C@H]2CCN(c3nccn4ccc(C)c34)C2)n1 [Compound 1.109] | 
19 | ≤ 500 | 500 to 2500 | Cc1ccn2ccnc(N3CC[C@H](NC(=O)c4ncc(-c5ccccc5)cn4)C3)c12 [Compound 1.110] | 
20 | ≤ 500 | 500 to 2500 | Cc1ccn2ccnc(N3CC[C@H](NC(=O)c4noc(-c5ccccc5)n4)C3)c12 [Compound 1.111] | 
21 | ≤ 500 | 500 to 2500 | O=C(N[C@H]1CCN(c2nccn3cnnc23)C1)c1ccn(-c2ccc(Cl)cc2)n1 [Compound 1.112] | 
22 | ≤ 500 | ≤ 500 | O=C(N[C@H]1CCN(c2nccn3cccc23)C1)c1ccn(-c2cccc(F)c2)n1 [Compound 1.113] | 

Reference: patent US10287292B2, “CXCR7 antagonists” (CHEMOCENTRYX, INC., priority 2012, dated 2019)
